The data set in a line: TIMS collision cross section in N2 (TIMS CCS N2); higher = larger gas-phase ion size. The conditions noted are these: drift gas: N2 (99.4% N2, 0.6% O2), calibration: Stow et al. 2017 values for Agilent ESI-L Low Concentration Tune Mix, ionization: negative ESI. The method, then:
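Authentic plant natural product standards (10-50 ppm in 80% methanol) were analysed by UHPLC (BEH C18, 60 °C) coupled to a Bruker timsTOF Pro in negative ESI with N2 drift gas. TIMS collision cross sections were computed from mobility peak apices after calibration with Agilent Tune Mix using Stow et al. reference values. Values are the average of triplicate runs on different days, reported per annotated ion species (deprotonated ion, adducts, dimer, oxidized ion).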

± gives the uncertainty stated by the source.

Consider `COc1ccc2c(=O)cc(-c3ccc(O)cc3)oc2c1` [7-Methoxy-4'-hydroxyflavone], for which the “TIMS collision cross section in N2” value by setting is: (ion species: [2M-H]-) 257.82 ± 0.34 Å²; (ion species: [M-H]-) 164.31 ± 0.31 Å². For the molecule `COc1ccc2c(c1)OC(c1ccccc1)CC2=O` (stereo not drawn) [7-Methoxyflavanone], the “TIMS collision cross section in N2” value (ion species: [M-H]-) is recorded as 163.71 ± 0.025 Å². Consider `COc1ccc(-c2cc3ccc(O)cc3oc2=O)cc1` [7-hydroxy 3(4- methoxyphenyl) coumarin], for which the “TIMS collision cross section in N2” value (ion species: [M-H]-) was 162.79 ± 0.25 Å². In the case of `COc1ccc(O)c2c1C(=O)CC(c1ccccc1)O2` (stereo not drawn) [8-Hydroxy-5-methoxyflavanone], the “TIMS collision cross section in N2” value (ion species: [M-H]-) came to 165.83 ± 0.053 Å². The same measure, in the same setting: as for `CC(C)=CCc1c(O)cc(O)c2c1O[C@H](c1ccc(O)cc1)CC2=O` [8-prenylnaringenin], the figure is 183.54 ± 0.32 Å². As for `O=c1cc(-c2ccc(O)cc2)oc2cc(OC3O[C@H](CO)[C@@H](O)[C@H](O)[C@H]3O)cc(O)c12` (stereo partly drawn) [Apigenin-7-O-glucoside (apigetrin)], the “TIMS collision cross section in N2” value runs as follows: (ion species: [M-H+Na+HCO2H]-) 228.65 ± 0.32 Å²; (ion species: [M-H]-) 206.74 ± 0.14 Å². As to `O=c1cc(-c2ccc(O)cc2)oc2cc(O)cc(O)c12` [Apigenin], the “TIMS collision cross section in N2” value is given as 238.72 ± 0.12 Å² (ion species: [2M-H]-) and 157.47 ± 0.15 Å² (ion species: [M-H]-). Consider `COc1cc2oc(-c3ccc(O)cc3O)c(CC=C(C)C)c(=O)c2c(O)c1/C=C/C(C)C` [Artocarpin], for which the “TIMS collision cross section in N2” value stood at 229.53 ± 0.64 Å² (ion species: [M-H+Na+HCO2H]-) and 218.58 ± 0.23 Å² (ion species: [M-H]-).

As to `C[C@H]1[C@H](C)CC[C@]2(C(=O)O)CC[C@]3(C)C(=CC[C@@H]4[C@@]5(C)C[C@@H](O)[C@H](O)[C@@](C)(CO)[C@@H]5CC[C@]43C)[C@H]12` [Asiatic acid], under “ion species: [M-H]-”, the “TIMS collision cross section in N2” value was found to be 222.65 ± 0.35 Å². For the molecule `O=C(CCc1ccc(O)c(O)c1)c1c(O)cc(O)c([C@@H]2O[C@H](CO)[C@@H](O)[C@H](O)[C@H]2O)c1O` [Aspalathin], the “TIMS collision cross section in N2” value is, setting by setting: (ion species: [2M-H]-) 274.03 ± 0.72 Å²; (ion species: [M-3H]-) 195.17 ± 0.1 Å²; (ion species: [M-H]-) 194.21 ± 0.22 Å². With `O=c1cc(-c2ccccc2)oc2cc(O)c(O)c(O)c12` [Baicalein], for the setting “ion species: [M-3H]-”, the “TIMS collision cross section in N2” value was 158.42 ± 0.15 Å². With `COc1ccc(-c2coc3cc(O)cc(O)c3c2=O)cc1` [Biochanin A (5,7-Dihydroxy-4'-methoxyisoflavone)], the “TIMS collision cross section in N2” value by setting is: (ion species: [2M-H]-) 261.04 ± 0.32 Å²; (ion species: [M-H]-) 166.11 ± 0.071 Å².

For `CC1(C)CC[C@]2(C)CC[C@]3(C)C(=CC[C@@H]4[C@@]5(C)CC[C@@H](O)[C@](C)(C(=O)O)[C@@H]5CC[C@]43C)[C@@H]2C1` [Boswellic acid, alpha-], the “TIMS collision cross section in N2” value by setting is: (ion species: [M-H+Na+HCO2H]-) 239.79 ± 0.21 Å²; (ion species: [M-H]-) 222.31 ± 0.39 Å². As to `Oc1cc(O)c2c(c1)O[C@@H](c1ccc(O)c(O)c1)[C@H](O)C2` [Catechin], under “ion species: [M-H]-”, the “TIMS collision cross section in N2” value is 156.67 ± 0.19 Å². For the molecule `CC1(C)CC[C@]2(C(=O)O)CC[C@]3(C)C(=CC[C@@H]4[C@@]5(C)CC[C@H](O[C@@H]6OC[C@H](O)[C@H](O)[C@H]6O[C@@H]6O[C@H](CO)[C@@H](O)[C@H](O)[C@H]6O)[C@@](C)(CO)[C@@H]5CC[C@]43C)[C@@H]2C1` [Cauloside C], the “TIMS collision cross section in N2” value (ion species: [M-H+HCO2H]-) was 289.87 ± 0.76 Å². Take `O=C(/C=C/c1ccc(O)c(O)c1)O[C@@H]1C[C@](O)(C(=O)O)C[C@@H](O)[C@H]1O` [Chlorogenic acid]: where the note is “ion species: [M-3H]-”, the “TIMS collision cross section in N2” value was 187.02 ± 0.44 Å². As to `O=c1cc(-c2ccccc2)oc2cc(O)cc(O)c12` [Chrysin], the “TIMS collision cross section in N2” value (ion species: [2M-H]-) was found to be 230.51 ± 0.25 Å² and the “TIMS collision cross section in N2” value (ion species: [M-H]-) came to 156.14 ± 0.1 Å². On to `CC(C)=CCC1=C(O)C(O)(CC=C(C)C)C(=O)C(C(=O)C(C)C)=C1O` (stereo not drawn) [Cohumulone], for which the “TIMS collision cross section in N2” value (ion species: [M-H]-) worked out at 184.13 ± 0.17 Å².

For the molecule `C[C@H]1[C@H](C)CC[C@]2(C(=O)O)CC[C@]3(C)C(=CC[C@@H]4[C@@]5(C)C[C@@H](O)[C@H](O)C(C)(C)[C@@H]5CC[C@]43C)[C@H]12` [Corosolic acid], the “TIMS collision cross section in N2” value (ion species: [M-H+Na+HCO2H]-) came out at 231.55 ± 0.4 Å² and the “TIMS collision cross section in N2” value (ion species: [M-H]-) is 220.34 ± 0.4 Å².

Consider `COc1cc(O)c2c(=O)cc(-c3cc(OC)c(OC)c(OC)c3)oc2c1` [Corymbosin], for which the “TIMS collision cross section in N2” value (ion species: [M-H]-) stood at 190.83 ± 0.34 Å². Take `O=c1oc2cc(O)ccc2c2oc3cc(O)ccc3c12` [Coumestrol]: the “TIMS collision cross section in N2” value is, setting by setting: (ion species: [2M-H]-) 245.05 ± 0.43 Å²; (ion species: [M-H]-) 155.75 ± 0.042 Å². For `O=c1c(-c2ccc(O)cc2)coc2cc(O)ccc12` [Daidzein], in that order: 246.33 ± 0.2 Å² and 157.59 ± 0.0071 Å².

Regarding `Oc1ccc2c(c1)O[C@H]1c3ccc(O)cc3OC[C@@H]21` [Demethyl medicarpin], under “ion species: [M-H]-”, the “TIMS collision cross section in N2” value is reported as 161.89 ± 0.17 Å². Take `CC(C)=CCc1c(O)cc(O)c(C(=O)/C=C/c2ccc(O)cc2)c1O` [Desmethylxanthohumol]: for the setting “ion species: [M-H]-”, the “TIMS collision cross section in N2” value is 183.45 ± 0.15 Å². With `O=C1c2c(O)cc(O)cc2O[C@H](c2ccc(O)cc2)[C@H]1O` [Dihydrokaempferol], the “TIMS collision cross section in N2” value is, setting by setting: (ion species: [2M-H]-) 248.74 ± 0.038 Å²; (ion species: [M-H+Na+HCO2H]-) 186.44 ± 0.2 Å²; (ion species: [M-H]-) 164.03 ± 0.16 Å². With `COc1ccc(-c2cc(=O)c3c(O)cc(O)cc3o2)cc1O` [Diosmetin], the “TIMS collision cross section in N2” value (ion species: [M-H]-) was 171.28 ± 0.2 Å².

Take `COc1ccc(-c2cc(=O)c3c(O)cc(O[C@@H]4O[C@H](CO[C@@H]5O[C@@H](C)[C@H](O)[C@@H](O)[C@H]5O)[C@@H](O)[C@H](O)[C@H]4O)cc3o2)cc1O` [Diosmin]: the “TIMS collision cross section in N2” value came to 247.05 ± 0.28 Å² (ion species: [M-H+Na+HCO2H]-) and 233.82 ± 0.23 Å² (ion species: [M-H]-). Take `O=C1C[C@@H](c2ccc(O)c(O)c2)Oc2cc(O)cc(O)c21` [Eriodictyol]: where the note is “ion species: [M-H]-”, the “TIMS collision cross section in N2” value stood at 165.97 ± 0.11 Å².

In the case of `COc1ccc(-c2cc(=O)c3c(O)c(OC)c(O)cc3o2)cc1OC` [Eupatilin], the “TIMS collision cross section in N2” value (ion species: [M-H+Na+HCO2H]-) came out at 201.78 ± 0.15 Å² and the “TIMS collision cross section in N2” value (ion species: [M-H]-) is 185.44 ± 0.18 Å². Take `Cc1c(O)c(C)c2c(c1O)C(=O)C[C@@H](c1ccc(O)cc1)O2` [Farrerol]: the “TIMS collision cross section in N2” value came out at 186.6 ± 0.36 Å² (ion species: [M-H+Na+HCO2H]-) and 172.28 ± 0.21 Å² (ion species: [M-H]-). Take `O=c1c(O)c(-c2ccc(O)c(O)c2)oc2cc(O)ccc12` [Fisetin]: the “TIMS collision cross section in N2” value is 157.48 ± 0.065 Å² (ion species: [M-3H]-) and 162.38 ± 0.017 Å² (ion species: [M-H]-).

Take `COc1ccc(-c2coc3cc(O)ccc3c2=O)cc1` [Formononetin]: the “TIMS collision cross section in N2” value is recorded as 257.46 ± 0.31 Å² (ion species: [2M-H]-) and 163.76 ± 0.32 Å² (ion species: [M-H]-). Turning to `O=c1c(-c2ccc(O)cc2)coc2cc(O)cc(O)c12` [Genistein], the “TIMS collision cross section in N2” value is, setting by setting: (ion species: [2M-H]-) 249.93 ± 0.16 Å²; (ion species: [M-H]-) 159.89 ± 0.26 Å². As to `O=c1c(-c2ccc(O)cc2)coc2cc(O[C@@H]3O[C@H](CO)[C@@H](O)[C@H](O)[C@H]3O)cc(O)c12` [Genistin], the “TIMS collision cross section in N2” value is listed as 220.37 ± 0.15 Å² (ion species: [M-H+HCO2H]-) and 212.14 ± 0.076 Å² (ion species: [M-H]-). For `COc1cc2c(=O)c(-c3ccc(O)cc3)coc2cc1O` [Glycitein], the “TIMS collision cross section in N2” value came to 184.69 ± 0.23 Å² (ion species: [M-H+Na+HCO2H]-) and 166.87 ± 0.13 Å² (ion species: [M-H]-).

On to `CC1(C)[C@@H](O[C@H]2O[C@H](C(=O)O)[C@@H](O)[C@H](O)[C@H]2O[C@@H]2O[C@H](C(=O)O)[C@@H](O)[C@H](O)[C@H]2O)CC[C@]2(C)[C@H]3C(=O)C=C4[C@@H]5C[C@@](C)(C(=O)O)CC[C@]5(C)CC[C@@]4(C)[C@]3(C)CC[C@@H]12` [Glycyrrhizic acid], for which the “TIMS collision cross section in N2” value (ion species: [M-H]-) came out at 279.43 ± 0.38 Å². Regarding `CC1(C)CC[C@]2(C(=O)O)CC[C@]3(C)C(=CC[C@@H]4[C@@]5(C)CC[C@H](O)[C@@](C)(CO)[C@@H]5CC[C@]43C)[C@@H]2C1` [Hederagenin], the “TIMS collision cross section in N2” value stood at 234.04 ± 0.57 Å² (ion species: [M-H+Na+HCO2H]-) and 222.47 ± 0.52 Å² (ion species: [M-H]-). As for `CCCCCCCCCCCCCCCCC(=O)O` [Heptadecanoic acid], the “TIMS collision cross section in N2” value reads like this: (ion species: [2M-H]-) 259.04 ± 0.54 Å²; (ion species: [M-H]-) 174.45 ± 0.021 Å². For `COc1ccc([C@@H]2CC(=O)c3c(O)cc(O)cc3O2)cc1O` [Hesperetin], in that order: 219.76 ± 0.28 Å² and 172.79 ± 0.23 Å². As for `COc1c(O)cc2oc(-c3ccc(O)cc3)cc(=O)c2c1O` [Hispidulin], the “TIMS collision cross section in N2” value (ion species: [M-H]-) turned out to be 165.52 ± 0.17 Å². For `COc1cc([C@@H]2CC(=O)c3c(O)cc(O)cc3O2)ccc1O` [Homoeriodictyol], the “TIMS collision cross section in N2” value runs as follows: (ion species: [M-H+Na+HCO2H]-) 188.05 ± 0.04 Å²; (ion species: [M-H]-) 168.62 ± 0.075 Å².

Regarding `CC(C)=CCC1C(=O)C(C(=O)CC(C)C)=C(O)C(O)(CC=C(C)C)C1=O` (stereo not drawn) [Humulone], for the setting “ion species: [M-H]-”, the “TIMS collision cross section in N2” value is listed as 188.57 ± 0.35 Å².

The record behind these values is the supplement of paper PMC7023306.
